Data: paper PMC12310023 (PLOS Neglected Tropical Diseases, 2025)

Tested on: NLuc-expressing C. parvum
Assay: NLuc C. parvum IFNγ-KO mouse infection model, oocyst shedding
Assay type: in vivo

CC(C)(CO)Cn1nc(-c2ccc3cc(OC4CC4)ccc3c2)c(C(N)=O)c1N [compound 1708]
RLU standardized by fecal weight (15 mg/kg x 3 days, group I, day 6 p.i., Cp Mouse Efficacy 2): 251957 RLU
RLU standardized by fecal weight (15 mg/kg x 3 days, group I, day 7 p.i., Cp Mouse Efficacy 2): 85920 RLU
RLU standardized by fecal weight (15 mg/kg x 3 days, group I, day 8 p.i., Cp Mouse Efficacy 2): 79354 RLU
RLU standardized by fecal weight (15 mg/kg x 3 days, group I, day 9 p.i., Cp Mouse Efficacy 2): 5065 RLU
RLU standardized by fecal weight (15 mg/kg x 3 days, group I, day 10 p.i., Cp Mouse Efficacy 2): 1311 RLU
RLU standardized by fecal weight (15 mg/kg x 3 days, group I, day 13 p.i., Cp Mouse Efficacy 2): 474 RLU
RLU standardized by fecal weight (15 mg/kg x 3 days, group I, day 15 p.i., Cp Mouse Efficacy 2): 57 RLU
RLU standardized by fecal weight (15 mg/kg x 3 days, group I, day 17 p.i., Cp Mouse Efficacy 2): 57 RLU
RLU standardized by fecal weight (15 mg/kg x 3 days, group I, day 20 p.i., Cp Mouse Efficacy 2): 227 RLU
RLU Raw (30 mg/kg QD x3, group G, Day 6, Cp Mouse Efficacy 1): 1295216 RLU
RLU Raw (30 mg/kg QD x3, group G, Day 7, Cp Mouse Efficacy 1): 1222624 RLU
RLU Raw (30 mg/kg QD x3, group G, Day 8, Cp Mouse Efficacy 1): 619376 RLU
RLU Raw (30 mg/kg QD x3, group G, Day 9, Cp Mouse Efficacy 1): 66208 RLU
RLU Raw (30 mg/kg QD x3, group G, Day 10, Cp Mouse Efficacy 1): 17152 RLU
RLU Raw (30 mg/kg QD x3, group G, Day 13, Cp Mouse Efficacy 1): 2912 RLU
RLU Raw (30 mg/kg QD x3, group G, Day 15, Cp Mouse Efficacy 1): 4896 RLU
RLU Raw (30 mg/kg QD x3, group G, Day 17, Cp Mouse Efficacy 1): 1792 RLU
RLU Raw (30 mg/kg QD x3, group G, Day 20, Cp Mouse Efficacy 1): 7008 RLU
RLU standardized by fecal weight (30 mg/kg QD x3, group G, day 6 p.i., Cp Mouse Efficacy 1): 182425 RLU
RLU standardized by fecal weight (30 mg/kg QD x3, group G, day 7 p.i., Cp Mouse Efficacy 1): 166343 RLU
RLU standardized by fecal weight (30 mg/kg QD x3, group G, day 8 p.i., Cp Mouse Efficacy 1): 154844 RLU
RLU standardized by fecal weight (30 mg/kg QD x3, group G, day 9 p.i., Cp Mouse Efficacy 1): 14087 RLU
RLU standardized by fecal weight (30 mg/kg QD x3, group G, day 10 p.i., Cp Mouse Efficacy 1): 2907 RLU
RLU standardized by fecal weight (30 mg/kg QD x3, group G, day 13 p.i., Cp Mouse Efficacy 1): 391 RLU
RLU standardized by fecal weight (30 mg/kg QD x3, group G, day 15 p.i., Cp Mouse Efficacy 1): 401 RLU
RLU standardized by fecal weight (30 mg/kg QD x3, group G, day 17 p.i., Cp Mouse Efficacy 1): 224 RLU
RLU standardized by fecal weight (30 mg/kg QD x3, group G, day 20 p.i., Cp Mouse Efficacy 1): 904 RLU
RLU Raw (30 mg/kg x 1 days, group F, Day 6, Cp Mouse Efficacy 2): 255712 RLU
RLU Raw (30 mg/kg x 1 days, group F, Day 7, Cp Mouse Efficacy 2): 157696 RLU
RLU Raw (30 mg/kg x 1 days, group F, Day 8, Cp Mouse Efficacy 2): 335600 RLU
RLU Raw (30 mg/kg x 1 days, group F, Day 9, Cp Mouse Efficacy 2): 101760 RLU
RLU Raw (30 mg/kg x 1 days, group F, Day 10, Cp Mouse Efficacy 2): 181040 RLU
RLU Raw (30 mg/kg x 1 days, group F, Day 13, Cp Mouse Efficacy 2): 15056 RLU
RLU Raw (30 mg/kg x 1 days, group F, Day 15, Cp Mouse Efficacy 2): 22080 RLU
RLU Raw (30 mg/kg x 1 days, group F, Day 17, Cp Mouse Efficacy 2): 4144 RLU
RLU Raw (30 mg/kg x 1 days, group F, Day 20, Cp Mouse Efficacy 2): 2768 RLU
RLU standardized by fecal weight (30 mg/kg x 1 days, group F, day 6 p.i., Cp Mouse Efficacy 2): 39645 RLU
RLU standardized by fecal weight (30 mg/kg x 1 days, group F, day 7 p.i., Cp Mouse Efficacy 2): 24640 RLU
RLU standardized by fecal weight (30 mg/kg x 1 days, group F, day 8 p.i., Cp Mouse Efficacy 2): 55471 RLU
RLU standardized by fecal weight (30 mg/kg x 1 days, group F, day 9 p.i., Cp Mouse Efficacy 2): 16820 RLU
RLU standardized by fecal weight (30 mg/kg x 1 days, group F, day 10 p.i., Cp Mouse Efficacy 2): 20342 RLU
RLU standardized by fecal weight (30 mg/kg x 1 days, group F, day 13 p.i., Cp Mouse Efficacy 2): 2841 RLU
RLU standardized by fecal weight (30 mg/kg x 1 days, group F, day 15 p.i., Cp Mouse Efficacy 2): 3046 RLU
RLU standardized by fecal weight (30 mg/kg x 1 days, group F, day 17 p.i., Cp Mouse Efficacy 2): 975 RLU
RLU standardized by fecal weight (30 mg/kg x 1 days, group F, day 20 p.i., Cp Mouse Efficacy 2): 410 RLU
RLU Raw (60 mg/kg QD x3, group F, Day 6, Cp Mouse Efficacy 1): 2614768 RLU
RLU Raw (60 mg/kg QD x3, group F, Day 7, Cp Mouse Efficacy 1): 2391472 RLU
RLU Raw (60 mg/kg QD x3, group F, Day 8, Cp Mouse Efficacy 1): 411984 RLU
RLU Raw (60 mg/kg QD x3, group F, Day 9, Cp Mouse Efficacy 1): 18336 RLU
RLU Raw (60 mg/kg QD x3, group F, Day 10, Cp Mouse Efficacy 1): 2272 RLU
RLU Raw (60 mg/kg QD x3, group F, Day 13, Cp Mouse Efficacy 1): 576 RLU
RLU Raw (60 mg/kg QD x3, group F, Day 15, Cp Mouse Efficacy 1): 304 RLU
RLU Raw (60 mg/kg QD x3, group F, Day 17, Cp Mouse Efficacy 1): 144 RLU
RLU Raw (60 mg/kg QD x3, group F, Day 20, Cp Mouse Efficacy 1): 224 RLU
RLU standardized by fecal weight (60 mg/kg QD x3, group F, day 6 p.i., Cp Mouse Efficacy 1): 261477 RLU
RLU standardized by fecal weight (60 mg/kg QD x3, group F, day 7 p.i., Cp Mouse Efficacy 1): 201812 RLU
RLU standardized by fecal weight (60 mg/kg QD x3, group F, day 8 p.i., Cp Mouse Efficacy 1): 45026 RLU
RLU standardized by fecal weight (60 mg/kg QD x3, group F, day 9 p.i., Cp Mouse Efficacy 1): 3245 RLU
RLU standardized by fecal weight (60 mg/kg QD x3, group F, day 10 p.i., Cp Mouse Efficacy 1): 215 RLU
RLU standardized by fecal weight (60 mg/kg QD x3, group F, day 13 p.i., Cp Mouse Efficacy 1): 93 RLU
RLU standardized by fecal weight (60 mg/kg QD x3, group F, day 15 p.i., Cp Mouse Efficacy 1): 78 RLU
RLU standardized by fecal weight (60 mg/kg QD x3, group F, day 17 p.i., Cp Mouse Efficacy 1): 33 RLU
RLU standardized by fecal weight (60 mg/kg QD x3, group F, day 20 p.i., Cp Mouse Efficacy 1): 67 RLU
RLU Raw (60 mg/kg x 1 day, group E, Day 6, Cp Mouse Efficacy 2): 814080 RLU
RLU Raw (60 mg/kg x 1 day, group E, Day 7, Cp Mouse Efficacy 2): 339152 RLU
RLU Raw (60 mg/kg x 1 day, group E, Day 8, Cp Mouse Efficacy 2): 54176 RLU
RLU Raw (60 mg/kg x 1 day, group E, Day 9, Cp Mouse Efficacy 2): 52848 RLU
RLU Raw (60 mg/kg x 1 day, group E, Day 10, Cp Mouse Efficacy 2): 91232 RLU
RLU Raw (60 mg/kg x 1 day, group E, Day 13, Cp Mouse Efficacy 2): 5456 RLU
RLU Raw (60 mg/kg x 1 day, group E, Day 15, Cp Mouse Efficacy 2): 4592 RLU
RLU Raw (60 mg/kg x 1 day, group E, Day 17, Cp Mouse Efficacy 2): 5520 RLU
RLU Raw (60 mg/kg x 1 day, group E, Day 20, Cp Mouse Efficacy 2): 2336 RLU
RLU standardized by fecal weight (60 mg/kg x 1 day, group E, day 6 p.i., Cp Mouse Efficacy 2): 144085 RLU
RLU standardized by fecal weight (60 mg/kg x 1 day, group E, day 7 p.i., Cp Mouse Efficacy 2): 44625 RLU
RLU standardized by fecal weight (60 mg/kg x 1 day, group E, day 8 p.i., Cp Mouse Efficacy 2): 11405 RLU
RLU standardized by fecal weight (60 mg/kg x 1 day, group E, day 9 p.i., Cp Mouse Efficacy 2): 12435 RLU
RLU standardized by fecal weight (60 mg/kg x 1 day, group E, day 10 p.i., Cp Mouse Efficacy 2): 12329 RLU
RLU standardized by fecal weight (60 mg/kg x 1 day, group E, day 13 p.i., Cp Mouse Efficacy 2): 774 RLU
RLU standardized by fecal weight (60 mg/kg x 1 day, group E, day 15 p.i., Cp Mouse Efficacy 2): 399 RLU
RLU standardized by fecal weight (60 mg/kg x 1 day, group E, day 17 p.i., Cp Mouse Efficacy 2): 726 RLU
RLU standardized by fecal weight (60 mg/kg x 1 day, group E, day 20 p.i., Cp Mouse Efficacy 2): 525 RLU
